The source of these data is patent US12318365B2, “Inhibition of dipeptide repeat proteins” (ALS Therapy Development Institute, priority 2019, dated 2025).

No end group written: not given here.

The series relates to NSC-34 cells. Briefly: Caspase-3 assay (apoptotic activity) in NSC-34 cells. It is filed as cell-based. The settings on record: for DRP-induced apoptotic activity: DRP 0.01-3 μM, 24 h, compared to DMSO-treated controls. The text has this:
Caspase-3/CPP32 Assay: The caspase-3 assay is a fluorometric assay that measures apoptotic cell death. Apoptosis is a form of “programmed” cell death, in which a certain family of proteins inside the cell triggers a cascade of chemical reactions that result in the cell killing itself. One family of proteins involved in this process is the caspase protein family. Of the caspase proteins, caspase-2, 8, 9, and 10 are known as “initiators,” those that trigger the death cascade, and caspase-3, 6, and 7 are known as “executioners,” which carry out the actual killing of the cell. In a caspase-3 assay, cells treated with test compounds are lysed, and a substrate known as DEVD-AFC is added to the lysate. If active caspase-3 enzyme is present in the lysate, it will cleave AFC from the DEVD-AFC substrate, resulting in a fluorescent signal that can be quantified using a fluorescence microtiter plate reader. Thus, the apoptotic activity of cells treated with test compounds can be quantified. Greater fluorescence readings correspond to more apoptotic cell death.
Cells were plated in culture medium in 2 96-well plates at a density of 3.7×10^4 cells per well, and incubated overnight at 37° C., 5% CO2. The following day, immediately prior to addition of test compounds, existing culture medium was removed and replaced with staggered volumes of culture medium as in Example 1. A 10 mM stock of MS023 was thawed to room temperature and diluted as in Example 1. A 10 mM stock of GR15 (SEQ ID NO: 1) and a 10 mM stock of PR15 (SEQ ID NO: 2) were equilibrated to room temperature and diluted in warm culture medium to achieve a final concentration of 300 nM in wells.
The following conditions were plated in triplicate. Samples were surrounded by border wells on the outside of the plate filled with sterile Phosphate-buffered saline to prevent evaporation of volume in experimental wells during incubation; • Background (Culture medium only) • Untreated/“Cells Only” (Cells in culture medium) • DMSO Control (Cells treated only with the amount of DMSO that GR- and PR-treated cells were exposed to) • GR Only (Cells treated only with 300 nM GR15) (SEQ ID NO: 1) • Cells treated with […] GR15 (SEQ ID NO: 1) and one of the following doses of MS023: 60 μM, 30 μM, 10 μM, 3 μM, 1 μM. • PR Only (Cells treated only with 300 nM PR15) (SEQ ID NO: 2) • Cells treated with 300 nM PR15 (SEQ ID NO: 2) and one of the following doses of MS023: 60 μM, 30 μM, 10 μM, 3 μM, 1 μM. • Cells treated with only one of the following doses of MS023: 60 μM, 30 μM, 10 μM, 3 μM, 1 μM. • Positive controls (Cells treated with either 5 or 16 μM PAC-1 Caspase-3 activator)
Plates were incubated for 24 h at 37° C., 5% CO2. Cells were tested and data were analyzed using the procedure detailed in Caspase-3 assay kit instructions.
Cells were plated in culture medium in 2 96-well plates at a density of 3.7×10^4 cells per well, and incubated overnight at 37° C., 5% CO2. The following day, immediately prior to addition of test compounds, existing culture medium was removed and replaced with staggered volumes of culture medium as in Example 1. A 10 mM stock of MS023 was thawed to room temperature and diluted in warm culture medium to achieve final concentrations of 3, 1, 0.3, 0.1, 0.03, and 0.01 μM in plate. A 10 mM stock of GR15 (SEQ ID NO: 1) and a 10 mM stock of PR15 (SEQ ID NO: 2) were equilibrated to room temperature and diluted in warm culture medium to achieve a final concentration of 3 μM in wells.
The following conditions were plated in triplicate. […]

On to `CC(C)Oc1ccc(-c2c[nH]cc2CN(C)CCN)cc1` [MS023], for which the “dose dependence of abrogation of GR-induced apoptotic activity” value by setting is: (300 nM GR15, 24 h, MS023 1-60 μM) “dose-dependently”; (3 μM GR15, 24 h, MS023 0.01-3 μM) “dose-dependently abrogated”. In addition, the “abrogation of GR-induced apoptotic activity” value by setting is: (300 nM GR15, 24 h, doses 3 and 1 μM) “fully abrogated”; (300 nM GR15, 24 h, doses 60, 30 and 10 μM) “partially abrogated”; (3 μM GR15, 24 h, all doses (0.01-3 μM)) “partially abrogated”; (3 μM GR15, 24 h, dose 3 μM) “fully abrogated”. The “dose dependence of abrogation of PR-induced apoptotic activity” value is “dose-dependently” (300 nM PR15, 24 h, MS023 1-60 μM) and “dose-dependently abrogated” (3 μM PR15, 24 h, MS023 0.01-3 μM). Moreover, the “abrogation of PR-induced apoptotic activity” value was “fully abrogated” (300 nM PR15, 24 h, all doses (1-60 μM)); “partially abrogated” (3 μM PR15, 24 h, all doses (0.01-3 μM)); “fully abrogated” (3 μM PR15, 24 h, dose 3 μM).

Consider GRGRGRGRGRGRGRGRGRGRGRGRGRGRGR [GR15], for which the DRP-induced apoptotic activity entry is given as “producing the most significant amount of apoptotic activity”.

On to PRPRPRPRPRPRPRPRPRPRPRPRPRPRPR [PR15], for which the DRP-induced apoptotic activity result was “producing the most significant amount of apoptotic activity”.
